In ChEMBL document CHEMBL1201862, “PubChem BioAssay data set” (2004):
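Dose response: 5 concentrations. Exposure: 48 h. Format: 96-well plates. Endpoint: linear interpolation; highest concentration if not reached. Here, GI50 denotes the concentration required for 50% inhibition of growth.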 Active and inactive are the calls of the source. Cut-off read from the data, not from the text of the source: active = GI50 up to about 1.1 µM and inactive = higher.

Columns and labels:
Experiment in all cases: inhibition of tumour cell growth, NCI panel, 48 h
TK-10 = test system: TK-10
MDA-N = test system: MDA-N
CCRF-CEM = test system: CCRF-CEM
T47D = test system: T47D
MDA-MB-231 = test system: MDA-MB-231
UACC-257 = test system: UACC-257
SK-MEL-5 = test system: SK-MEL-5
M14 = test system: M14
CAKI-1 = test system: CAKI-1
OVCAR-3 = test system: OVCAR-3
HOP-92 = test system: HOP-92
HL-60 = test system: HL-60
SNB-19 = test system: SNB-19
UO-31 = test system: UO-31
MCF7 = test system: MCF7
U-251 = test system: U-251
NCI-H522 = test system: NCI-H522
RXF 393 = test system: RXF 393
SK-MEL-28 = test system: SK-MEL-28
SNB-75 = test system: SNB-75

Measured: GI50

N#CCN(CC#N)C1CC=CCC1N(CC#N)CC#N (stereo not drawn)
inactive: TK-10 > 100 µM | MDA-N > 100 µM | CCRF-CEM > 100 µM | T47D > 100 µM | MDA-MB-231 > 100 µM | UACC-257 > 100 µM | SK-MEL-5 > 100 µM | M14 > 100 µM | CAKI-1 > 100 µM | OVCAR-3 > 100 µM | HOP-92 > 100 µM | HL-60 > 100 µM | SNB-19 > 100 µM | UO-31 > 100 µM | MCF7 > 100 µM | U-251 > 100 µM | NCI-H522 > 100 µM | RXF 393 > 100 µM

CC(C)(NO)/C(=N\O)c1ccccc1
inactive: TK-10 > 10 µM | MDA-N > 10 µM | CCRF-CEM > 10 µM | T47D > 10 µM | MDA-MB-231 > 10 µM | UACC-257 > 10 µM | M14 > 10 µM | CAKI-1 > 10 µM | OVCAR-3 > 10 µM | HOP-92 > 10 µM | HL-60 > 10 µM | SNB-19 > 10 µM | UO-31 > 10 µM | MCF7 > 10 µM | U-251 > 10 µM | NCI-H522 > 10 µM | RXF 393 > 10 µM

N#Cc1c(-c2ccc([N+](=O)[O-])cc2)c2c([nH]c1=O)-c1ccccc1CCC2
inactive: TK-10 > 100 µM | MDA-N 94.2 µM | SK-MEL-28 47.9 µM | T47D 21.5 µM | MDA-MB-231 > 100 µM | UACC-257 80 µM | SK-MEL-5 51.9 µM | M14 > 100 µM | CAKI-1 > 100 µM | OVCAR-3 31.8 µM | HOP-92 1.48 µM | HL-60 43 µM | SNB-19 70.1 µM | UO-31 86.3 µM | MCF7 33.4 µM | U-251 52.5 µM | NCI-H522 41.5 µM | RXF 393 30.9 µM

COc1cc(/C=C2\CC(C)C/C(=C\c3ccc(O)c(OC)c3)C2=O)ccc1O (stereo not drawn)
inactive: TK-10 5.45 µM | MDA-N 2.54 µM | CCRF-CEM 2.56 µM | SK-MEL-28 3.42 µM | T47D 1.6 µM | MDA-MB-231 2.06 µM | UACC-257 3.87 µM | SK-MEL-5 1.82 µM | M14 3.04 µM | OVCAR-3 2.8 µM | HOP-92 2.92 µM | HL-60 2.98 µM | SNB-19 10.2 µM | UO-31 2.24 µM | MCF7 4.66 µM | U-251 2.38 µM | NCI-H522 2.11 µM | RXF 393 2.85 µM | SNB-75 4.24 µM

Cc1ccc(-c2n[nH]c(=O)n2NC(=O)c2ccccc2C(=O)O)cc1
inactive: TK-10 > 100 µM | MDA-N > 100 µM | SK-MEL-28 > 100 µM | T47D 72.8 µM | MDA-MB-231 > 100 µM | UACC-257 > 100 µM | SK-MEL-5 > 100 µM | M14 > 100 µM | CAKI-1 > 100 µM | OVCAR-3 > 100 µM | HOP-92 > 100 µM | HL-60 > 100 µM | SNB-19 > 100 µM | UO-31 > 100 µM | MCF7 > 100 µM | U-251 > 100 µM | NCI-H522 > 100 µM | RXF 393 > 100 µM | SNB-75 > 100 µM

OC[C@H]1CC(c2nn[nH]n2)[C@H](O)[C@@H]1O (stereo partly drawn)
inactive: TK-10 > 100 µM | MDA-N > 100 µM | CCRF-CEM > 100 µM | SK-MEL-28 > 100 µM | T47D > 100 µM | MDA-MB-231 > 100 µM | SK-MEL-5 > 100 µM | M14 > 100 µM | OVCAR-3 > 100 µM | HOP-92 > 100 µM | HL-60 > 100 µM | SNB-19 > 100 µM | UO-31 > 100 µM | MCF7 > 100 µM | U-251 > 100 µM | NCI-H522 > 100 µM | RXF 393 8.13 µM | SNB-75 > 100 µM

O=c1[nH]cc(/N=C/c2cc(Cl)ccc2O)c(=O)[nH]1
inactive: TK-10 > 100 µM | MDA-N 37.8 µM | CCRF-CEM 2.26 µM | SK-MEL-28 13.6 µM | T47D 14.8 µM | MDA-MB-231 19.6 µM | UACC-257 58.7 µM | SK-MEL-5 20.1 µM | M14 13.8 µM | CAKI-1 30.3 µM | OVCAR-3 17.5 µM | HOP-92 11.2 µM | HL-60 4.71 µM | SNB-19 20.7 µM | UO-31 29.6 µM | MCF7 17.7 µM | U-251 8.05 µM | NCI-H522 31.7 µM | RXF 393 81.7 µM

C=CCSC1=N/C(=C\c2ccc(OC)cc2)C(=O)N1CC=C
inactive: TK-10 45.2 µM | MDA-N 23.2 µM | CCRF-CEM 16.6 µM | SK-MEL-28 42.5 µM | T47D 16.2 µM | MDA-MB-231 37.2 µM | UACC-257 23.2 µM | SK-MEL-5 15.6 µM | M14 36.7 µM | CAKI-1 50.5 µM | OVCAR-3 45.9 µM | HOP-92 28.8 µM | HL-60 16 µM | SNB-19 84.3 µM | UO-31 34.3 µM | MCF7 28.4 µM | U-251 24.3 µM | NCI-H522 27.7 µM | RXF 393 14.6 µM

CNC(=O)c1cc(NC(=O)N(CCC#N)CCN(C(=O)N[C@@H](Cc2ccccc2)C(=O)N[C@@H](CC(C)C)C(=O)NC)c2ccccc2)ccc1OC
inactive: TK-10 > 72.6 µM | MDA-N > 100 µM | CCRF-CEM > 66.1 µM | SK-MEL-28 29.3 µM | T47D > 47.6 µM | MDA-MB-231 > 38.3 µM | UACC-257 19.5 µM | SK-MEL-5 29.9 µM | M14 > 93.3 µM | CAKI-1 > 81.1 µM | OVCAR-3 > 65.8 µM | HOP-92 20.9 µM | HL-60 23.2 µM | SNB-19 > 59.2 µM | UO-31 > 52 µM | MCF7 > 76 µM | U-251 > 100 µM | RXF 393 > 54.6 µM | SNB-75 49.3 µM

COc1ccccc1/C=C1\Sc2scc(-c3ccc(O)c(O)c3)[n+]2C1=O
inactive: TK-10 28.5 µM | MDA-N 23.9 µM | CCRF-CEM 2.57 µM | SK-MEL-28 18.2 µM | T47D 16.3 µM | MDA-MB-231 20 µM | UACC-257 26.3 µM | SK-MEL-5 18.1 µM | M14 15.1 µM | CAKI-1 15.1 µM | OVCAR-3 16.6 µM | HOP-92 19.7 µM | HL-60 2.28 µM | SNB-19 35.8 µM | UO-31 18.7 µM | MCF7 25.5 µM | U-251 27.8 µM | NCI-H522 8.99 µM | RXF 393 17.7 µM

Cc1ccc(S(=O)(=O)C2=C([Si](C)(C)C)C3CC2[C@@H]2C4C=CC(CC4)[C@H]32)cc1 (stereo partly drawn)
inactive: TK-10 27 µM | MDA-N > 100 µM | SK-MEL-28 > 100 µM | T47D 37.9 µM | MDA-MB-231 26.5 µM | UACC-257 > 100 µM | SK-MEL-5 > 100 µM | M14 > 100 µM | CAKI-1 82.6 µM | OVCAR-3 93.8 µM | HOP-92 60.7 µM | HL-60 > 100 µM | SNB-19 23.8 µM | UO-31 > 100 µM | MCF7 > 100 µM | U-251 23.9 µM | NCI-H522 51.9 µM | RXF 393 33.5 µM
